Here are results for two compounds from publication PMC4319009, “Small Molecules Dorsomorphin and LDN-193189 Inhibit Myostatin/GDF8 Signaling and Promote Functional Myoblast Differentiation” (The Journal of Biological Chemistry, 2014).

SMILES strings stand for the structures. pKd: −log10 of the molar value.

One assay deals with T1, ActRIIA (Homo sapiens, UniProt P27037).
T1 construct: gene ACVR2A; kinase domain residues 191-488, N-terminal His6 removed by TEV protease, vector pFB-LIC-Bse, baculovirus Sf9; two molecules per asymmetric unit
As to the kind of experiment: isothermal titration calorimetry. The assay is classed as binding. From the text:
isothermal titration calorimetry on ActRIIA
A general note: ITC needs no label: the signal is the heat of the interaction.

The next assay concerns the target T2, ActRIIB (Homo sapiens, UniProt Q13705).
T2 construct: gene ACVR2B; kinase domain residues 190-487, N-terminal His6 removed by TEV protease, vector pFB-LIC-Bse, baculovirus Sf9
The experiment in a line: isothermal titration calorimetry. The assay is classed as binding. From the text: isothermal titration calorimetry on ActRIIB

T1 sequence (P27037 191-488): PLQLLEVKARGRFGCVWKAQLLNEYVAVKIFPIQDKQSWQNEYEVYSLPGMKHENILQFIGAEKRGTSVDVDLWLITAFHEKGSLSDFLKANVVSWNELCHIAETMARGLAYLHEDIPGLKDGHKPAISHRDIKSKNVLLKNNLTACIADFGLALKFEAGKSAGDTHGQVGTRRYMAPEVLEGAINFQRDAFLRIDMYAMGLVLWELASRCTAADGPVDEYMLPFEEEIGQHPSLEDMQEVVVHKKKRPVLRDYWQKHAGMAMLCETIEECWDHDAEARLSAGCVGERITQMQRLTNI
T2 sequence (Q13705 190-487): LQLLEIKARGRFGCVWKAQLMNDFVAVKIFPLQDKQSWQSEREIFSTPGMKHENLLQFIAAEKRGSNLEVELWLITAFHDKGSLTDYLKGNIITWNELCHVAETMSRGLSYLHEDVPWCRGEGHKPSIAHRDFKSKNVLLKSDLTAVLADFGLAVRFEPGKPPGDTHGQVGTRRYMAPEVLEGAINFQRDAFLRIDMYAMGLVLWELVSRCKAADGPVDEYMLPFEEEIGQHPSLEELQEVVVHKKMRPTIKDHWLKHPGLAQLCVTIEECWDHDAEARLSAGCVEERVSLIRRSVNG

The term pKd denotes the negative decadic logarithm of the Kd, by convention in mol/L. A low value points to a large Kd. On ActRIIA, `c1ccc2c(-c3cnn4cc(-c5ccc(N6CCNCC6)cc5)cnc34)ccnc2c1` [LDN-193189] gave a pKd of 7.85.
On to `c1cc(-c2cnn3cc(-c4ccc(OCCN5CCCCC5)cc4)cnc23)ccn1` [Dorsomorphin], for which the pKd on ActRIIA is 7.24; on ActRIIB, 7.52.
